Measurements published in ChEMBL document CHEMBL1201862, “PubChem BioAssay data set” (2004).
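Cultured in 96-well plates, cells were exposed to test compound for 48 hours across five concentrations. The concentration for 50% growth inhibition is given as GI50.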 Activity calls are given as the source filed them. Cut-off read from the data, not from the text of the source: active = GI50 up to about 1.1 µM and inactive = higher.

Tests used:
Experiment in all cases: NCI anticancer screen, dose series, 48 h
NCI-H522 = system: NCI-H522
OVCAR-5 = system: OVCAR-5
SNB-78 = system: SNB-78
Malme-3M = system: Malme-3M
M19-MEL = system: M19-MEL
IGROV-1 = system: IGROV-1
COLO 205 = system: COLO 205
OVCAR-4 = system: OVCAR-4
EKVX = system: EKVX
HOP-62 = system: HOP-62
DMS-273 = system: DMS-273
ACHN = system: ACHN
XF498 = system: XF498
MDA-MB-231 = system: MDA-MB-231
SW-620 = system: SW-620
SNB-19 = system: SNB-19
SN12C = system: SN12C
CCRF-CEM = system: CCRF-CEM
786-0 = system: 786-0
HT-29 = system: HT-29
SK-OV-3 = system: SK-OV-3
UACC-257 = system: UACC-257
NCI-H226 = system: NCI-H226
A498 = system: A498
SNB-75 = system: SNB-75
SK-MEL-2 = system: SK-MEL-2
BT-549 = system: BT-549
LXFL 529 = system: LXFL 529
SK-MEL-5 = system: SK-MEL-5
NCI-H460 = system: NCI-H460
LOX IMVI = system: LOX IMVI
KM-20L2 = system: KM-20L2
SF-268 = system: SF-268
U-251 = system: U-251
MDA-N = system: MDA-N
MCF7 = system: MCF7
Hs-578T = system: Hs-578T
HOP-92 = system: HOP-92
DLD-1 = system: DLD-1
KM12 = system: KM12
TK-10 = system: TK-10
OVCAR-3 = system: OVCAR-3
K562 = system: K562
MOLT-4 = system: MOLT-4
HOP-18 = system: HOP-18
M14 = system: M14
PC-3 = system: PC-3
MDA-MB-435 = system: MDA-MB-435
T47D = system: T47D
DU-145 = system: DU-145
UO-31 = system: UO-31
HCT-116 = system: HCT-116
DMS-114 = system: DMS-114
CAKI-1 = system: CAKI-1
RPMI-8226 = system: RPMI-8226
SF-539 = system: SF-539
OVCAR-8 = system: OVCAR-8
NCI-H23 = system: NCI-H23
HCC 2998 = system: HCC 2998
HL-60 = system: HL-60
A549 = system: A549
RXF 393 = system: RXF 393
SK-MEL-28 = system: SK-MEL-28
HCT-15 = system: HCT-15
SF-295 = system: SF-295
NCI/ADR-RES = system: NCI/ADR-RES
UACC-62 = system: UACC-62

`CN(C)CCNc1ccc2ncn3c4ccc(O)cc4c(=O)c1c23` was tested, and the GI50 (NCI-H522) was 409 nM (active), the GI50 (OVCAR-5) was 3380 nM (inactive) and the GI50 (SNB-78) was 3030 nM (inactive). For the same molecule, the GI50 (Malme-3M) was 2640 nM (inactive), the GI50 (M19-MEL) was 1090 nM (active) and the GI50 (IGROV-1) was 1090 nM (active). The GI50 (COLO 205) was 698 nM (active), the GI50 (OVCAR-4) was 1040 nM (active) and the GI50 (EKVX) was 5220 nM (inactive). The GI50 (HOP-62) was 153 nM (active), the GI50 (DMS-273) was 317 nM (active) and the GI50 (ACHN) was 158 nM (active). For the same molecule, the GI50 (XF498) was 4130 nM (inactive), the GI50 (MDA-MB-231) was 1670 nM (inactive) and the GI50 (SW-620) was 281 nM (active). For the same molecule, the GI50 (SNB-19) was 920 nM (active), the GI50 (SN12C) was 562 nM (active) and the GI50 (CCRF-CEM) was 171 nM (active). For the same molecule, the GI50 (786-0) was 612 nM (active), the GI50 (HT-29) was 1060 nM (active) and the GI50 (SK-OV-3) was 1290 nM (inactive). The GI50 (UACC-257) was 5740 nM (inactive), the GI50 (NCI-H226) was 476 nM (active) and the GI50 (A498) was 745 nM (active). For the same molecule, the GI50 (SNB-75) was 404 nM (active), the GI50 (SK-MEL-2) was 3790 nM (inactive) and the GI50 (BT-549) was 14200 nM (inactive). For the same molecule, the GI50 (LXFL 529) was 1410 nM (inactive), the GI50 (SK-MEL-5) was 714 nM (active) and the GI50 (NCI-H460) was 87.1 nM (active). The GI50 (LOX IMVI) was 543 nM (active), the GI50 (KM-20L2) was 2380 nM (inactive) and the GI50 (SF-268) was 893 nM (active). For the same molecule, the GI50 (U-251) was 214 nM (active), the GI50 (MDA-N) was 2880 nM (inactive) and the GI50 (MCF7) was 83.2 nM (active). For the same molecule, the GI50 (Hs-578T) was 1180 nM (inactive), the GI50 (HOP-92) was 2540 nM (inactive) and the GI50 (DLD-1) was 1080 nM (active). The GI50 (KM12) was 1950 nM (inactive), the GI50 (TK-10) was 2660 nM (inactive) and the GI50 (OVCAR-3) was 3040 nM (inactive). The GI50 (K562) was 762 nM (active), the GI50 (MOLT-4) was 25.8 nM (active) and the GI50 (HOP-18) was 10600 nM (inactive). The GI50 (M14) was 1630 nM (inactive), the GI50 (PC-3) was 1420 nM (inactive) and the GI50 (MDA-MB-435) was 2410 nM (inactive). For the same molecule, the GI50 (T47D) was 10200 nM (inactive), the GI50 (DU-145) was 315 nM (active) and the GI50 (UO-31) was 845 nM (active). The GI50 (HCT-116) was 272 nM (active), the GI50 (DMS-114) was 526 nM (active) and the GI50 (CAKI-1) was 224 nM (active). For the same molecule, the GI50 (RPMI-8226) was 735 nM (active), the GI50 (SF-539) was 460 nM (active) and the GI50 (OVCAR-8) was 646 nM (active). The GI50 (NCI-H23) was 614 nM (active), the GI50 (HCC 2998) was 2120 nM (inactive) and the GI50 (HL-60) was 647 nM (active). For the same molecule, the GI50 (A549) was 66.1 nM (active), the GI50 (RXF 393) was 617 nM (active) and the GI50 (SK-MEL-28) was 4530 nM (inactive). For the same molecule, the GI50 (HCT-15) was 714 nM, the GI50 (SF-295) was 1390 nM (inactive) and the GI50 (NCI/ADR-RES) was 3000 nM (inactive). The GI50 (UACC-62) was 3440 nM (inactive).
